The results in this text go back to patent US7803757B2, “Peptides based on the sequence of human lactoferrin and their use” (PharmaSurgics in Sweden AB, priority 1998, dated 2010).

Values after ≈ are worked out from the molar mass of the structure shown. Bridge positions count the residues as written; N and C are the ends. Ends that are not written are not given here. Peptide text beside a SMILES is read from it.

In experiment [1] the test system is C. albicans. The experiment in a line: microbicidal activity MMC99%, C. albicans (Example 28). The format is cell-based. As to conditions: C. albicans (Table 24). How it is done:
(§1) In the examples, the minimal microbicidal concentrations (MMC) and minimal inhibitory concentrations (MIC) were determined as follows, unless otherwise specified in the examples. Bacterial or fungal strains were cultured in BHI medium over night at 37° C. A volume of the culture was transferred to a new tube with BHI and incubated for two more hours. Thereafter the cells were spun down and the pellet was suspended in BHI medium diluted 1/100 (1% BHI). The concentration of bacterial or fungal cells was spectrophotometrically determined at 650 nm. The microbial concentrations were also determined by viable counts. Peptides serially diluted in 1% BHI by twofold or tenfold steps were added in triplicate to the wells of a microtiterplate (200 μl per well). The bacterial or fungal cell solutions were added in 10 μl volumes to give a final concentration of approximately 1-5×10^5 cells per ml in the well. The microplate was incubated at 37° C. in a humid chamber for two hours. Thereafter 5 μl was taken from each well and added as a drop onto a blood agar plate and incubated over night at 37° C. The microplate was incubated for another 20 hours at 37° C. and thereafter analysed spectrophotometrically at 650 nm in a microplate reader (Emax, Molecular Devices, USA). The concentration of peptide causing a 99% reduction of the inoculum after 2 hours of incubation was defined as the MMC99%. The MIC value was defined as the concentration giving no increase in the absorbance value above the background level after 20 hours of incubation.
(§2) In this example the microbicidal activity of eight of the peptides according to the invention was studied, and tested against E. coli O6K5 and C. albicans.
(§3) The concentration of each peptide needed to kill 99% of the microorganisms (MMC99%) was determined.

In experiment [2] the test system is E. coli O14. Description: bactericidal and growth inhibitory activity, E. coli O14 (Example 9). As to conditions: for Concentration of agent for 100% killing: E. coli O14, 2 hours; for Concentration of agent for inhibition of growth: E. coli O14, spectrophotometrically after 20 hours. Type of experiment: cell-based. How it is done:
E. coli O14 was incubated as described above in the presence of the peptides during 2 hours. The bactericidal activity was measured in the same way as described above.
The inhibition of growth was measured spectrophotometrically after incubation during 20 hours.

In experiment [3] the test system is reference strain of S. aureus. Description: bactericidal activity, reference strain of S. aureus (Example 19). The format is cell-based. As to conditions: reference strain of S. aureus 5.0×10^5 per ml, 2 hours at 37° C., lowest concentration tested 6.25 μg/ml. How it is done:
In this example the bactericidal activity of three of the peptides according to the invention was studied in a test with a reference strain of S. aureus. A bacterial solution with a concentration of 5.0×10^5 S. aureus bacterial per ml was used. The concentration of each peptide needed to kill 99% of the bacteria (MMC99%) was determined after 2 hours of incubation at 37° C. The lowest concentration tested was 6.25 μg/ml.

For a further experiment, the system named is C. albicans (ATCC 64549). The experiment in a line: microbe, parasite or virus in culture. How it is done: as §1
In this example the fungicidal activity of one of the peptides according to the invention, the peptide with SEQ. ID. NO. 7, was compared to the conventional antifungal agents flucytosine and fluconazole, and also to human lactoferrin (hLF). The antifungal agents were tested on C. albicans (ATCC 64549) in a concentration of 2×10^5 cells/ml. The tests were performed in BHI medium diluted 1/100.

Experiment [4] has as its system C. albicans. Description: concentration for killing of 99% of C. albicans at different pH (Example 13, FIG. 2). Type of experiment: cell-based. Conditions: for concentration needed for killing of 99% of C. albicans, compared with the capped cyclic peptides (in words): FIG. 2, different pH. The source says:
In this example the concentrations needed of three peptides according to the invention for killing of 99% of C. albicans at different pH was compared to a reference peptide. The peptides according to the invention were peptide 2 (linear), peptide 3 (cyclic), peptide 4 (linear), peptide 5 (cyclic) and peptide 7 (lactam bridged), all capped. The reference peptides used were an uncapped cyclic form and an uncapped linear form of a Morinaga peptide, Morinaga 24 and 25. The results are illustrated in FIG. 2.

For experiment [5], the system named is Candida albicans ATCC 64549. Description: fungicidal and growth inhibitory activity, Candida albicans ATCC 64549 (Example 8). The format is cell-based. Conditions: for Concentration of agent for 100% killing: C. albicans ATCC 64549 1·10^5/ml, 2 hours 37° C., diluted BHI; for Concentration of agent for inhibition of growth: C. albicans ATCC 64549, spectrophotometrically after 20 hours. How it is done:
Candida albicans ATCC 64549 (1·10^5/ml) was incubated in the presence of the peptides during 2 hours at 37° C. in diluted growth medium (BHI, twofold serial dilutions starting with 50 μg/ml). The fungicidal activity was measured by culturing 5 μl from each incubation well on Saboroud agar plates.
The inhibition of growth was measured spectrophotometrically after 20 hours of incubation.

The subject of experiment [6] is E. coli O6K5. Description: microbicidal activity MMC99%, E. coli O6K5 (Example 28). The format is cell-based. As to conditions: E. coli O6K5 (Table 24). How it is done: as §1, §2, §3
The subject of experiment [7] is LPS-induced IL-6 response in a monocytic cell line (THP-1). The experiment in a line: inhibition of LPS-induced IL-6 response in THP-1 cells (Example 5). Type of experiment: cell-based. Conditions: IL-6 response in THP-1 cells, agent added 30 minutes after LPS. How it is done: In this example an in vitro test was performed to study the anti-inflammatory activity of the peptides according to the invention. More precisely, the inhibitory effect of the peptides according to the invention on the LPS-induced IL-6 response in a monocytic cell line (THP-1) was studied and compared to the effect of human lactoferrin by use of the method described by I. Mattsby-Baltzer et al., Pediatr. Res. 40:257-262, 1996. The IL-6 response in the THP-1 cells was induced by addition of LPS. hLF, peptide 3 and peptide 4, respectively, were added 30 minutes after LPS.

Another experiment deals with Candida albicans. The experiment in a line: fungicidal activity against Candida albicans strains (Example 4). Type of experiment: cell-based. How it is done: (§4) In this example the fungicidal activity of the peptides according to the invention was tested and compared to the fungicidal activity of human lactoferrin. Different concentrations of hLF, peptide 3 and peptide 4 were incubated with different strains of Candida albicans and Candida krusei during 1-2 hours at 37° C. in 0.05 mM KCl at pH 7.0 at two different occasions—experiment I and II, respectively. After incubation samples were taken for plating on Saboroud plates.

A further experiment concerns Candida krusei. The experiment in a line: fungicidal activity against Candida krusei strains (Example 4). The format is cell-based. Conditions: Exp. I. How it is done: as §4
The subject of experiment [8] is E. coli O14. The experiment in a line: bactericidal activity, incubation with E. coli O14 (Example 3, exp. I and III). Type of experiment: cell-based. How it is done:
Human lactoferrin (hLF), peptide 3, and peptide 4, respectively, were incubated with two different strains of E. coli, E. coli O14 (experiment I) and O6K5 (experiment II), in diluted growth medium ( 1/100 BHI—brain heart infusion) for 2 hours. The peptides were also incubated with E. coli O14 in 0.05 mM KCl (pH 7) without any growth medium (experiment III). Different concentrations of the peptides were tested.
After the incubation, samples were taken for bacterial plating. Serial dilutions of five- and fourfold steps were used in experiments I and II, respectively, and of twofold steps in experiment III.
The concentrations of the different peptides required for killing 100% (experiments I and II) or 90% (experiment III) of the bacteria are given in table 2.

Experiment [9] deals with E. coli O6K5. Description: urinary tract infection in mice, bacteria (CFU) in kidney (Example 6). Type of experiment: in vivo. Conditions: Exp II, mouse strain C3H/Tif, 500 μg per mouse orally 30 minutes after instillation, 24 hours. How it is done:
E. coli O6K5 was instilled into the urinary bladder of mice. 30 minutes after instillation the different agents specified in table 5 were administered orally in an amount of 500 μg per mouse and 24 hours after instillation the number of bacteria (CFU) present in bladder and in kidney was determined.
The control group consisted of 10 animals in experiment I and of 23 animals in experiment II. The animals in the control groups were given tap water instead of peptide or hLF.

Regarding `CSCC[C@H](NC(=O)[C@@H]1CC(=O)NCCCC[C@H](NC(=O)[C@H](Cc2ccccc2)NC(=O)[C@H](C)NC(=O)[C@H](CCCCN)NC(=O)[C@@H](NC(C)=O)[C@@H](C)O)C(=O)N[C@@H](Cc2c[nH]c3ccccc23)C(=O)N[C@@H](CCC(N)=O)C(=O)N[C@@H](CCCNC(=N)N)C(=O)N1)C(=O)N[C@@H](CCCNC(=N)N)C(=O)N[C@@H](CCCCN)C(=O)N[C@H](C(=O)N[C@@H](CCCNC(=N)N)C(N)=O)C(C)C` [Peptide 7] (Ac-TKAFKWQRDMRKVR-NH2; lactam 5-9), the MMC99% was 5 in the experiment with C. albicans [1]; “≦6.25 μg/ml” in [3]; 6.2 µg/mL in the experiment on C. albicans (ATCC 64549) (C. albicans ATCC 64549, 2×10^5 cells/ml, BHI diluted 1/100); more than 20 in the experiment with E. coli O6K5 [6]. The “Concentration of agent for 100% killing” value with E. coli O14 [2] was 12.5 µg/mL; in experiment [5] it was 3.1 µg/mL. Further, the “Concentration of agent for inhibition of growth” value with E. coli O14 [2] is “≦1.5 μg/ml”; in experiment [5], 1.5 µg/mL. Moreover, in the experiment on C. albicans (ATCC 64549) (ATCC64549), the MIC amounted to 6.2 µg/mL (≈ 3.31 µM). For the same compound, in the experiment with C. albicans [4] (FIG. 2, all different pH), the “concentration needed for killing of 99% of C. albicans, ranking over all pH (in words)” value is recorded as “most effective peptide at all different pH”. In the experiment with C. albicans [4], the “concentration needed for killing of 99% of C. albicans, compared with the capped cyclic peptides (in words)” value is given as “better effects than the capped cyclic peptides”.
As to “Peptide 3: cyclic form of SEQ. ID. NO. 2, disulphide bridge between the two cysteines in positions 5 and 22 (Ac-EATKCFQWQRNMRKVRGPPVSCIKR; disulfide 5-22)”, the “Concentration of agent for 100% killing” value with E. coli O14 [2] came out at 12.5 µg/mL; in [5], 6.2 µg/mL. For the same compound, the “Concentration of agent for inhibition of growth” value is 3.1 µg/mL with E. coli O14 [2] and 6.2 µg/mL in experiment [5]. Further, in experiment [7], the “% inhibition of LPS response” value is given as 17%. Also, the “ratio hLF/pep. (concentration for 99% killing)” value in the experiment with Candida albicans (Exp. I, C. albicans ATCC 64549) is more than 83; in the experiment with Candida albicans (Exp. I, C. albicans CCUG 90028) it was more than 83; in the experiment with Candida albicans (Exp. II, C. albicans ATCC 64549) it was more than 133; in the experiment on Candida albicans (Exp. II, C. albicans CCUG 599), more than 133; in the experiment with Candida albicans (Exp. II, C. albicans CCUG 1759) it was more than 133; in the experiment with Candida krusei (C. krusei CCUG 969) it was 20. In addition, in the experiment with Candida krusei (C. krusei CCUG 35849), the “ratio hLF/pep. (concentration for 99% killing)” value amounted to 21. Also, the “Concentration of agent for 99% killing” value in the experiment with Candida albicans (Exp. I, C. albicans ATCC 64549, 0.05 mM KCl pH 7.0, 1-2 hours 37° C.) is 0.6 µg/mL; in the experiment with Candida albicans (Exp. I, C. albicans CCUG 90028, 0.05 mM KCl pH 7.0), 0.6 µg/mL; with Candida albicans (Exp. II, C. albicans ATCC 64549, 0.05 mM KCl pH 7.0), 1.5 µg/mL; in the experiment with Candida albicans (Exp. II, C. albicans CCUG 599, 0.05 mM KCl pH 7.0), 1.5 µg/mL; with Candida albicans (Exp. II, C. albicans CCUG 1759, 0.05 mM KCl pH 7.0), 1.5 µg/mL; in the experiment on Candida krusei (C. krusei CCUG 969, 0.05 mM KCl pH 7.0), 1.25 µg/mL. Also, the “Concentration of agent for 99% killing” value with Candida krusei (C. krusei CCUG 35849, 0.05 mM KCl pH 7.0) amounted to 0.6 µg/mL. Further, the “concentration needed for killing of 99% of C. albicans, compared with the capped cyclic peptides (in words)” value in the experiment with C. albicans [4] is reported as “better effects than the capped cyclic peptides”. Besides, the “Concentration of agent for 100%/90% killing” value in the experiment on E. coli O14 [8] (Exp. I: 100% killing, E. coli O14, 1/100 BHI, 2 hours) came to 4.4 µg/mL; in the experiment with E. coli O14 [8] (Exp. III: 90% killing, E. coli O14, 0.05 mM KCl (pH 7) without growth medium), 12.5 µg/mL. In addition, the “Statistical comparison of treatment group with control group of the number of bacteria, CFU, present in kidney (p, Mann-Whitney)” value in the experiment with E. coli O6K5 [9] is on record as “p = 0.0574”.
As for “SEQ. ID. NO. 36: second embodiment, sequence from a position 13-25 to position 31 of human lactoferrin; sequence only in sequence listing (TKCFQWQRNMRKVR; ends and bridges not checked)”, the MMC99% result in [3] is on record as “≦6.25 μg/ml”.
Same read-out and setting: for “SEQ. ID. NO. 98: 14 amino acids, modified positions 18-31 of human lactoferrin; sequence only in sequence listing (TKKFQWQRNMRKVR)” the value was “≦6.25 μg/ml”.
